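A five-concentration, 48-hour dose response in 96-well plates underlies each endpoint, interpolated linearly between surrounding concentrations. Definition used: TGI = concentration required for complete inhibition of growth.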

Data on 14 molecules can be found in PubChem BioAssay (NCI).

Holding throughout (assay): NCI tumour cell line growth inhibition, 48 h
For test [1], the system named is T-47D breast.
Test [2] has as its system KM20L2 colon.
In test [3] the test system is DMS 273 small cell lung.
The test system of test [4] is DLD-1 colon.
Test [5] has as its system LXFL 529 NSCLC.
In test [6] the test system is SNB-78 CNS.
The test system of test [7] is HOP-18 NSCLC.
Test [8] has as its system XF 498 CNS.
The test system of test [9] is M19-MEL melanoma.
Test [10] relates to NCI-H460 lung.
In test [11] the test system is RXF-631 renal.
In test [12] the test system is ACHN renal.
Test [13] relates to OVCAR-5 ovarian.
Test [14] deals with 786-0 renal.
The test system of test [15] is LOX IMVI melanoma.
Test [16] has as its system UACC-62 melanoma.
Test [17] relates to DMS 114 small cell lung.
The test system of test [18] is SN12K1 renal.
In test [19] the test system is P388/ADR leukemia.

With `O=c1cc(-c2ccccc2)[nH]c2cc3c(cc12)OCO3`, the TGI in test [1] was above 100 µM; in [2], 12.2 µM; in test [3], 84.9 µM; in test [4], above 100 µM; in [5] it was above 100 µM; in test [6], above 78.8 µM. Also, the TGI in test [7] was above 100 µM; in test [8] it was above 67.2 µM; in [9], above 100 µM; in test [10], above 57.8 µM; in test [11] it was above 100 µM; in test [12], above 100 µM. For the same molecule, the TGI was above 100 µM in [13], above 93 µM in test [14], above 100 µM in [15] and above 90.7 µM in test [16].
On to `CCOC(=O)C(N)CSC(=O)NC` (stereo not drawn), for which the TGI in test [17] stood at 147 µM; in [1] it was 773 µM; in test [2] it was 507 µM; in test [3] it was 375 µM; in test [4] it was 474 µM; in test [18], 112 µM. Further, the TGI in test [7] stood at 686 µM; in test [8], 289 µM; in [19], 104 µM; in test [9] it was 157 µM; in test [10], 397 µM; in test [12] it was 510 µM. The TGI is 689 µM in [13], 201 µM in test [14], 133 µM in test [15] and 304 µM in test [16].
As for `CC(C)(C)C(=O)/C=C/c1ccc(Oc2ccccc2)cc1`, the TGI in [2] came out at 40.2 µM; in [4] it was 61.4 µM; in test [5], 28.9 µM; in test [6], 75.7 µM; in [7], 34.9 µM; in test [8], 28.8 µM. For the same molecule, the TGI in test [9] is above 100 µM; in test [10] it was 43.9 µM; in test [12], 32.7 µM; in [13] it was 33.8 µM; in test [14] it was 40 µM.
In the case of `COc1cc2c(cc1OC)C(O)[C@H](Br)C(C)(C)O2` (stereo partly drawn), the TGI in test [17], in test [2], in [3], in test [4], in test [5] and in [7] was above 100 µM throughout. For the same molecule, the TGI in test [8], in [9], in test [10], in [12], in [13] and in test [14] was above 100 µM throughout. For the same molecule, the TGI in test [15] and in test [16] was above 100 µM each time.
As for `CCOC(=O)C(N=Nc1ccc(S(N)(=O)=O)cc1)C(C)=O` (stereo not drawn), the TGI in [17], in [2], in test [3], in test [4], in test [5] and in [6] was above 100 µM in each case. Besides, the TGI in [7], in test [8], in [9], in test [10], in [11] and in test [12] was above 100 µM each time. For the same molecule, the TGI in [13], in test [14], in test [15] and in test [16] was above 100 µM throughout.
On to `Cc1cccc(NC(=O)/C=C/c2ccc(N(CCC#N)CCC#N)cc2C)c1`, for which the TGI in [17], in test [2], in test [3], in [4], in test [5] and in [8] was above 100 µM each time. For the same molecule, the TGI in test [9], in test [10], in test [11], in test [12], in [13] and in test [14] was above 100 µM in each case. Besides, the TGI in test [15] and in [16] was above 100 µM in each case.
In the case of `Clc1ccc(-c2c(C3=NCCN3)nnn2-c2ccc(Cl)cc2)cc1`, the TGI in [17] is 31.5 µM; in [2], 32.7 µM; in test [3], above 100 µM; in test [4], above 100 µM; in [5], 95.4 µM; in [6], 61.7 µM. Besides, the TGI is above 100 µM in test [7]; 29.5 µM in test [8]; 30.5 µM in [9]; above 100 µM in test [10]; above 100 µM in test [12]; above 100 µM in test [13]. The TGI in test [14] is 58.4 µM; in test [15], above 100 µM; in [16], 32.7 µM.
Consider `CCN1CCN(c2ccc(Nc3ccnc4ccc5nn(C)nc5c34)cc2)CC1`, for which the TGI in [17] came to 22.6 µM; in test [2], 27.4 µM; in test [4], 28.3 µM; in test [5], 23.8 µM; in test [6] it was 33.8 µM; in test [8], 26.9 µM. The TGI was 29.8 µM in [9]; 17.2 µM in test [10]; 23.9 µM in [11]; 28 µM in test [12]; 32.5 µM in [13]; 22.6 µM in [14]. In addition, the TGI in test [15] stood at 20.1 µM; in [16] it was 30.8 µM.
Consider `CCCCCC(C[N+]1(C)CCOCC1)C(=O)/C=C/c1ccccc1` (stereo not drawn), for which the TGI in test [17] was 26 µM; in test [2], 32.9 µM; in test [3], 11.7 µM; in [4], 18 µM; in [5], 11.5 µM; in test [6] it was 46.9 µM. Also, the TGI in test [7] was 32.1 µM; in test [8], 28.3 µM; in test [9], 32 µM; in test [10], above 61.5 µM; in test [12], 60.8 µM; in test [13], 37.3 µM. The TGI in [14] worked out at 4.26 µM; in [15], 4.02 µM; in test [16], 26.6 µM.
Take `N#C/C(=C\c1ccc(O)c(O)c1)C(N)=O`: the TGI in [17], in test [2], in test [3], in test [4], in [5] and in [6] was above 100 µM each time. In addition, the TGI in test [9], in [10], in [11], in test [12], in [13] and in [14] was above 100 µM in each case. Further, in test [16], the TGI was above 100 µM.
Consider `O=C(C[n+]1ccccc1)NNC(=O)/C(=C/c1ccc2c(c1)OCO2)NC(=O)c1ccccc1`, for which the TGI in [17] was 46.4 µM; in [2] it was above 100 µM; in test [3], above 69.8 µM; in test [4] it was above 62.2 µM; in [5], above 77.2 µM; in test [6], above 100 µM. Also, the TGI was above 84.7 µM in test [7]; above 83.5 µM in test [8]; above 100 µM in [9]; 98.3 µM in test [10]; above 100 µM in [12]; above 100 µM in [13]. Besides, the TGI in [14] was above 90.7 µM; in test [15] it was 49 µM; in test [16] it was above 100 µM.
On to `O=C1C(Cl)C(c2ccccc2)N1n1cnc2ccccc2c1=O` (stereo not drawn), for which the TGI in test [17], in [2], in test [3], in [4], in [5] and in [6] was above 100 µM in each case. The TGI in test [7], in [8], in test [9], in test [10], in test [12] and in test [13] was above 100 µM each time. Also, the TGI in test [14], in test [15] and in test [16] was above 100 µM in each case.
In the case of `Nc1ccc(C(=O)NN2C(=O)C(Cl)C2c2ccccc2Cl)cc1` (stereo not drawn), the TGI in [17] was 18.8 µM; in test [2] it was 29.9 µM; in test [3] it was 12 µM; in [4], 23 µM; in [5], 5.23 µM; in test [6] it was 33 µM. The TGI is 8.87 µM in test [7]; 31.5 µM in [8]; 20.5 µM in [9]; 16.5 µM in test [10]; 30 µM in test [12]; 28.4 µM in test [13]. For the same molecule, the TGI in test [14] amounted to 3.35 µM; in test [15] it was 2.9 µM; in [16], 20.8 µM.
For the molecule `COC(=O)C(=C/c1ccc(OC)cc1)/C(C(=O)O)=C(/C)c1ccccc1`, the TGI in test [2], in test [3], in test [4], in test [5], in [6] and in [7] was above 100 µM each time. The TGI in test [8], in test [9], in test [10], in test [12], in test [13] and in test [14] was above 100 µM in each case. Besides, the TGI in test [15] and in [16] was above 100 µM in each case.
